According to patent publication US20110092544A1, “FUNGICIDAL PYRIDINES” (E.I. DU PONT DE nemours and company, priority 2008, published 2011):

Key:
Format in all cases: in vivo
[1] = test system: Erysiphe graminis f. sp. tritici; assay: Test A: wheat powdery mildew, preventive spray on wheat seedlings, visual disease rating
Text: (§1) General protocol for preparing test suspensions for Tests A-H: The test compounds were first dissolved in acetone in an amount equal to 3% of the final volume and then suspended at the desired concentration (in ppm) in acetone and purified water (50/50 mix) containing 250 ppm of the surfactant Trem® 014 (polyhydric alcohol esters). The resulting test suspensions were then used in tests A-H. Spraying a 200 ppm test suspension to the point of run-off on the test plants was the equivalent of a rate of 500 g/ha.
The test suspension was sprayed to the point of run-off on wheat seedlings. The following day the seedlings were inoculated with a spore dust of Erysiphe graminis f. sp. tritici (the causal agent of wheat powdery mildew) and incubated in a growth chamber at 20° C. for 8 days, after which time disease ratings were visually made.
(§2) Results for Tests A-H are given in Table A. In the table, a rating of 100 indicates 100% disease control and a rating of 0 indicates no disease control (relative to the controls). A dash (-) indicates no test results. All results are for compounds tested at 200 ppm except where the compound number is followed by “*” which indicates the compound was tested at 40 ppm.

[2] = test system: Puccinia recondite f. sp. tritici; assay: Test B: wheat leaf rust, preventive spray on wheat seedlings, visual disease rating
Text: as §1
The test suspension was sprayed to the point of run-off on wheat seedlings. The following day the seedlings were inoculated with a spore suspension of Puccinia recondite f. sp. tritici (the causal agent of wheat leaf rust) and incubated in a saturated atmosphere at 20° C. for 24 h, and then moved to a growth chamber at 20° C. for 7 days, after which time disease ratings were visually made.
as §2

Septoria tritici = assay: Test C: wheat leaf blotch, preventive spray on wheat seedlings, visual disease rating
Text: as §1
The test suspension was sprayed to the point of run-off on wheat seedlings. The following day the seedlings were inoculated with a spore suspension of Septoria tritici (the causal agent of wheat leaf blotch) and incubated in a saturated atmosphere at 20° C. for 48 h, and moved to a growth chamber at 20° C. for 19 additional days, after which time disease ratings were visually made.
as §2

Septoria nodorum = assay: Test D: wheat glume blotch, preventive spray on wheat seedlings, visual disease rating
Text: as §1
The test suspension was sprayed to the point of run-off on wheat seedlings. The following day the seedlings were inoculated with a spore suspension of Septoria nodorum (the causal agent of wheat glume blotch) and incubated in a saturated atmosphere at 20° C. for 48 h, and then moved to a growth chamber at 20° C. for 7 days, after which time disease ratings were visually made.
as §2

Alternaria solani = assay: Test E: tomato early blight, preventive spray on tomato seedlings, visual disease rating
Text: as §1
The test suspension was sprayed to the point of run-off on tomato seedlings. The following day the seedlings were inoculated with a spore suspension of Alternaria solani (the causal agent of tomato early blight) and incubated in a saturated atmosphere at 27° C. for 48 h, and then moved to a growth chamber at 20° C. for 5 days, after which time disease ratings were visually made.
as §2

Botrytis cinerea = assay: Test F: tomato botrytis, preventive spray on tomato seedlings, visual disease rating
Text: as §1
The test suspension was sprayed to the point of run-off on tomato seedlings. The following day the seedlings were inoculated with a spore suspension of Botrytis cinerea (the causal agent of tomato botrytis) and incubated in saturated atmosphere at 20° C. for 48 h, and then moved to a growth chamber at 24° C. for 3 additional days, after which time disease ratings were visually made.
as §2

[3] = 200 ppm, 100 = 100% disease control, 0 = no control
[4] = 40 ppm (compound number followed by *)

COc1cc(OC)cc(-c2c(-c3ccc(F)cc3)cnc(C)c2-c2ccccc2F)c1 [Compound 94]
Test A rating (% disease control) [1, 3]: 21%
Test B rating (% disease control) [2, 3]: 54%
Test C rating (% disease control) (Septoria tritici; [3]): 91%
Test D rating (% disease control) (Septoria nodorum; [3]): 0%
Test E rating (% disease control) (Alternaria solani; [3]): 0%
Test F rating (% disease control) (Botrytis cinerea; [3]): 98%

CCC(O)c1cnc(C)c(-c2c(F)ccc(OC)c2F)c1-c1cc(OC)cc(OC)c1 (stereo not drawn) [Compound 115]
Test A rating (% disease control) [1, 4]: 93%
Test B rating (% disease control) [2, 4]: 96%
Test C rating (% disease control) (Septoria tritici; [4]): 98%
Test D rating (% disease control) (Septoria nodorum; [4]): 0%
Test E rating (% disease control) (Alternaria solani; [4]): 99%
Test F rating (% disease control) (Botrytis cinerea; [4]): 98%

COc1ccc(-c2c(C)ncc(C(C)=O)c2-c2cc(OC)cc(OC)c2)cc1 [Compound 61]
Test A rating (% disease control) [1, 3]: 86%
Test B rating (% disease control) [2, 3]: 99%
Test C rating (% disease control) (Septoria tritici; [3]): 84%
Test D rating (% disease control) (Septoria nodorum; [3]): 0%
Test E rating (% disease control) (Alternaria solani; [3]): 83%
Test F rating (% disease control) (Botrytis cinerea; [3]): 99%

CCOC(=O)c1cnc(C)c(-c2ccc(OC)cc2)c1-c1cc(OC)cc(OC)c1 [Compound 60]
Test A rating (% disease control) [1, 3]: 59%
Test B rating (% disease control) [2, 3]: 59%
Test C rating (% disease control) (Septoria tritici; [3]): 68%
Test D rating (% disease control) (Septoria nodorum; [3]): 0%
Test E rating (% disease control) (Alternaria solani; [3]): 0%
Test F rating (% disease control) (Botrytis cinerea; [3]): 99%

COc1cc(OC)cc(-c2c(-c3c(F)cccc3F)cnc(C#N)c2-c2c(F)cccc2F)c1 [Compound 81]
Test A rating (% disease control) [1, 3]: 78%
Test B rating (% disease control) [2, 3]: 96%
Test C rating (% disease control) (Septoria tritici; [3]): 93%
Test D rating (% disease control) (Septoria nodorum; [3]): 0%
Test E rating (% disease control) (Alternaria solani; [3]): 98%
Test F rating (% disease control) (Botrytis cinerea; [3]): 46%

COc1cc(OC)cc(-c2c(C(C)C)cnc(C)c2-c2c(F)cc(OC)cc2F)c1 [Compound 75]
Test A rating (% disease control) [1, 4]: 99%
Test B rating (% disease control) [2, 4]: 100%
Test C rating (% disease control) (Septoria tritici; [4]): 96%
Test D rating (% disease control) (Septoria nodorum; [4]): 99%
Test E rating (% disease control) (Alternaria solani; [4]): 100%
Test F rating (% disease control) (Botrytis cinerea; [4]): 99%

COc1cc(OC)cc(-c2c(C3CCOCC3)cnc(C)c2-c2c(F)cc(F)cc2F)c1 [Compound 79]
Test A rating (% disease control) [1, 4]: 97%
Test B rating (% disease control) [2, 4]: 100%
Test C rating (% disease control) (Septoria tritici; [4]): 93%
Test D rating (% disease control) (Septoria nodorum; [4]): 95%
Test E rating (% disease control) (Alternaria solani; [4]): 100%
Test F rating (% disease control) (Botrytis cinerea; [4]): 91%

CCC(C)c1cnc(C)c(-c2ccc(F)cc2)c1-c1cc(OC)cc(OC)c1 (stereo not drawn) [Compound 63]
Test A rating (% disease control) [1, 3]: 78%
Test B rating (% disease control) [2, 3]: 96%
Test C rating (% disease control) (Septoria tritici; [3]): 79%
Test D rating (% disease control) (Septoria nodorum; [3]): 0%
Test E rating (% disease control) (Alternaria solani; [3]): 74%
Test F rating (% disease control) (Botrytis cinerea; [3]): 97%

CCC(O)c1cnc(C)c(-c2c(F)cc(F)cc2F)c1-c1cc(OC)cc(OC)c1 (stereo not drawn) [Compound 99]
Test A rating (% disease control) [1, 3]: 100%
Test B rating (% disease control) [2, 3]: 100%
Test C rating (% disease control) (Septoria tritici; [3]): 94%
Test D rating (% disease control) (Septoria nodorum; [3]): 100%
Test E rating (% disease control) (Alternaria solani; [3]): 100%
Test F rating (% disease control) (Botrytis cinerea; [3]): 98%

C=C(C)c1cnc(C)c(-c2ccc(OC)cc2)c1-c1cc(OC)cc(OC)c1 [Compound 64]
Test A rating (% disease control) [1, 3]: 85%
Test B rating (% disease control) [2, 3]: 99%
Test C rating (% disease control) (Septoria tritici; [3]): 95%
Test D rating (% disease control) (Septoria nodorum; [3]): 90%
Test E rating (% disease control) (Alternaria solani; [3]): 100%
Test F rating (% disease control) (Botrytis cinerea; [3]): 99%

COc1cc(OC)cc(-c2c(C(N)=O)cnc(C)c2-c2c(F)cc(F)cc2F)c1 [Compound 120]
Test A rating (% disease control) [1, 4]: 0%
Test B rating (% disease control) [2, 4]: 91%
Test C rating (% disease control) (Septoria tritici; [4]): 87%
Test D rating (% disease control) (Septoria nodorum; [4]): 0%
Test E rating (% disease control) (Alternaria solani; [4]): 47%
Test F rating (% disease control) (Botrytis cinerea; [4]): 79%

COc1cc(OC)c(Cl)c(-c2c(C(C)(C)O)cnc(C)c2-c2c(F)cc(F)cc2F)c1 [Compound 119]
Test A rating (% disease control) [1, 4]: 99%
Test B rating (% disease control) [2, 4]: 100%
Test C rating (% disease control) (Septoria tritici; [4]): 98%
Test D rating (% disease control) (Septoria nodorum; [4]): 98%
Test E rating (% disease control) (Alternaria solani; [4]): 100%
Test F rating (% disease control) (Botrytis cinerea; [4]): 100%

COc1ccc(-c2c(C)ncc(C(C)(C)O)c2-c2cc(OC)cc(OC)c2)cc1 [Compound 62]
Test A rating (% disease control) [1, 3]: 80%
Test B rating (% disease control) [2, 3]: 100%
Test C rating (% disease control) (Septoria tritici; [3]): 94%
Test D rating (% disease control) (Septoria nodorum; [3]): 73%
Test E rating (% disease control) (Alternaria solani; [3]): 100%
Test F rating (% disease control) (Botrytis cinerea; [3]): 95%

COc1cc(OC)c(Cl)c(-c2c(C(C)=O)cnc(C)c2-c2c(F)cc(F)cc2F)c1 [Compound 118]
Test A rating (% disease control) [1, 4]: 100%
Test B rating (% disease control) [2, 4]: 100%
Test C rating (% disease control) (Septoria tritici; [4]): 96%
Test D rating (% disease control) (Septoria nodorum; [4]): 0%
Test E rating (% disease control) (Alternaria solani; [4]): 99%
Test F rating (% disease control) (Botrytis cinerea; [4]): 100%

COc1ccc(-c2c(C)ncc(C(C)(O)CO)c2-c2cc(OC)cc(OC)c2)cc1 (single isomer, unassigned) [Compound 83]
Test A rating (% disease control) [1, 3]: 95%
Test B rating (% disease control) [2, 3]: 99%
Test C rating (% disease control) (Septoria tritici; [3]): 95%
Test D rating (% disease control) (Septoria nodorum; [3]): 0%
Test E rating (% disease control) (Alternaria solani; [3]): 99%
Test F rating (% disease control) (Botrytis cinerea; [3]): 54%

COc1ccc(-c2c(C)ncc(C(C)(O)CO)c2-c2cc(OC)cc(OC)c2)cc1 (single isomer, unassigned) [Compound 85]
Test A rating (% disease control) [1, 3]: 43%
Test B rating (% disease control) [2, 3]: 61%
Test C rating (% disease control) (Septoria tritici; [3]): 43%
Test D rating (% disease control) (Septoria nodorum; [3]): 0%
Test E rating (% disease control) (Alternaria solani; [3]): 0%
Test F rating (% disease control) (Botrytis cinerea; [3]): 96%

COc1cc(OC)cc(-c2c(Cn3ccc(C(F)(F)F)n3)cnc(C)c2-c2c(F)cc(F)cc2F)c1 [Compound 108]
Test A rating (% disease control) [1, 3]: 64%
Test B rating (% disease control) [2, 3]: 85%
Test C rating (% disease control) (Septoria tritici; [3]): 71%
Test D rating (% disease control) (Septoria nodorum; [3]): 0%
Test E rating (% disease control) (Alternaria solani; [3]): 0%
Test F rating (% disease control) (Botrytis cinerea; [3]): 87%

COc1cc(OC)cc(-c2c(CO)cnc(C)c2-c2c(F)cc(F)cc2F)c1 [Compound 96, 4-(3,5-dimethoxyphenyl)-6-methyl-5-(2,4,6-trifluorophenyl)-3-pyridinemethanol]
pest or weed control at 200 ppm ([1]; Blumeria graminis, 192 h, 200 ppm, 100 = 100% disease control, 0 = no control): 98%
pest or weed control at 200 ppm ([2]; 192 h, 200 ppm, 100 = 100% disease control, 0 = no control): 96%
pest or weed control at 200 ppm (Septoria tritici; Zymoseptoria tritici, 504 h, 200 ppm, 100 = 100% disease control, 0 = no control): 94%
pest or weed control at 200 ppm (Septoria nodorum; Parastagonospora nodorum, 216 h, 200 ppm, 100 = 100% disease control, 0 = no control): 0%
pest or weed control at 200 ppm (Alternaria solani; Alternaria solani, 168 h, 200 ppm, 100 = 100% disease control, 0 = no control): 99%
pest or weed control at 200 ppm (Botrytis cinerea; Botrytis cinerea, 120 h, 200 ppm, 100 = 100% disease control, 0 = no control): 98%
